Source: publication PMC12748989 (Nature Communications, 2025)

Legend:
[1] = tested on: MDA-MB-231 cells
[2] = tested on: PBMC; conditions: 12.5 µM

Compound: CC[C@H](C)[C@H](N)C(=O)N[C@@H](CC(N)=O)C(=O)N[C@@H](CC(C)C)C(=O)N[C@@H](CCCCN)C(=O)N[C@H](C(=O)N[C@@H](CC(C)C)C(=O)N[C@@H](C)C(=O)N[C@@H](C)C(=O)N[C@@H](CC(C)C)C(=O)N[C@@H](C)C(=O)N[C@@H](CCCCN)C(=O)N[C@@H](CCCCN)C(=O)N[C@H](C(=O)N[C@@H](CC(C)C)C(N)=O)[C@@H](C)CC)C(C)C [V5]
- Average (percentage cell inhibition), Dmastoparan MDA-MB231 12.5uM [1]: 36.2551%
- Average (percentage cell inhibition), Mastoparan PBMC [2]: 6.235%

Compound: CC[C@H](C)[C@H](N)C(=O)N[C@@H](CC(N)=O)C(=O)N[C@@H](CC(C)C)C(=O)N[C@@H](CCCCN)C(=O)N[C@@H](C)C(=O)N[C@H](C(=O)N[C@@H](C)C(=O)N[C@@H](C)C(=O)N[C@@H](CC(C)C)C(=O)N[C@@H](C)C(=O)N[C@@H](CCCCN)C(=O)N[C@@H](CCCCN)C(=O)N[C@H](C(=O)N[C@@H](CC(C)C)C(N)=O)[C@@H](C)CC)C(C)C [V6]
- Average (percentage cell inhibition), Dmastoparan MDA-MB231 12.5uM [1]: 10.4144%
- Average (percentage cell inhibition), Mastoparan PBMC [2]: -4.76%

Compound: CC[C@H](C)[C@H](N)C(=O)N[C@@H](CC(N)=O)C(=O)N[C@@H](CC(C)C)C(=O)N[C@@H](CCCCN)C(=O)N[C@@H](C)C(=O)N[C@@H](CC(C)C)C(=O)N[C@H](C(=O)N[C@@H](C)C(=O)N[C@@H](CC(C)C)C(=O)N[C@@H](C)C(=O)N[C@@H](CCCCN)C(=O)N[C@@H](CCCCN)C(=O)N[C@H](C(=O)N[C@@H](CC(C)C)C(N)=O)[C@@H](C)CC)C(C)C [V7]
- Average (percentage cell inhibition), Dmastoparan MDA-MB231 12.5uM [1]: 57.1739%
- Average (percentage cell inhibition), Mastoparan PBMC [2]: 22.1422%

Compound: CC[C@H](C)[C@H](N)C(=O)N[C@@H](CC(N)=O)C(=O)N[C@@H](CC(C)C)C(=O)N[C@@H](CCCCN)C(=O)N[C@@H](C)C(=O)N[C@@H](CC(C)C)C(=O)N[C@@H](C)C(=O)N[C@H](C(=O)N[C@@H](CC(C)C)C(=O)N[C@@H](C)C(=O)N[C@@H](CCCCN)C(=O)N[C@@H](CCCCN)C(=O)N[C@H](C(=O)N[C@@H](CC(C)C)C(N)=O)[C@@H](C)CC)C(C)C [V8]
- Average (percentage cell inhibition), Dmastoparan MDA-MB231 12.5uM [1]: 43.0954%
- Average (percentage cell inhibition), Mastoparan PBMC [2]: 11.0844%

Compound: CC[C@H](C)[C@H](N)C(=O)N[C@@H](CC(N)=O)C(=O)N[C@@H](CC(C)C)C(=O)N[C@@H](CCCCN)C(=O)N[C@@H](C)C(=O)N[C@@H](CC(C)C)C(=O)N[C@@H](C)C(=O)N[C@@H](C)C(=O)N[C@H](C(=O)N[C@@H](C)C(=O)N[C@@H](CCCCN)C(=O)N[C@@H](CCCCN)C(=O)N[C@H](C(=O)N[C@@H](CC(C)C)C(N)=O)[C@@H](C)CC)C(C)C [V9]
- Average (percentage cell inhibition), Dmastoparan MDA-MB231 12.5uM [1]: 43.1794%
- Average (percentage cell inhibition), Mastoparan PBMC [2]: 10.0305%

Compound: CC[C@H](C)[C@H](N)C(=O)N[C@@H](CC(N)=O)C(=O)N[C@@H](CC(C)C)C(=O)N[C@@H](CCCCN)C(=O)N[C@@H](C)C(=O)N[C@@H](CC(C)C)C(=O)N[C@@H](C)C(=O)N[C@@H](C)C(=O)N[C@@H](CC(C)C)C(=O)N[C@H](C(=O)N[C@@H](CCCCN)C(=O)N[C@@H](CCCCN)C(=O)N[C@H](C(=O)N[C@@H](CC(C)C)C(N)=O)[C@@H](C)CC)C(C)C [V10]
- Average (percentage cell inhibition), Dmastoparan MDA-MB231 12.5uM [1]: 85.9235%
- Average (percentage cell inhibition), Mastoparan PBMC [2]: 37.352%

Compound: CC[C@H](C)[C@H](N)C(=O)N[C@@H](CC(N)=O)C(=O)N[C@@H](CC(C)C)C(=O)N[C@@H](CCCCN)C(=O)N[C@@H](C)C(=O)N[C@@H](CC(C)C)C(=O)N[C@@H](C)C(=O)N[C@@H](C)C(=O)N[C@@H](CC(C)C)C(=O)N[C@@H](C)C(=O)N[C@H](C(=O)N[C@@H](CCCCN)C(=O)N[C@H](C(=O)N[C@@H](CC(C)C)C(N)=O)[C@@H](C)CC)C(C)C [V11]
- Average (percentage cell inhibition), Dmastoparan MDA-MB231 12.5uM [1]: 50.781%
- Average (percentage cell inhibition), Mastoparan PBMC [2]: 14.2972%
